Publication PMC6013247, “Preclinical characterization of INCB053914, a novel pan-PIM kinase inhibitor, alone and in combination with anticancer agents, in models of hematologic malignancies” (PLoS ONE, 2018)

Experiments:
AXL = AXL (Homo sapiens, UniProt P30530); assay: Kinase selectivity panel; format: biochemical; settings: [ATP] = 1 mM
CAMK2D = CAMK2D (Homo sapiens, UniProt Q13557); assay: Kinase selectivity panel; format: biochemical; settings: [ATP] = 1 mM
DYRK2 = DYRK2 (Homo sapiens, UniProt Q92630); assay: Kinase selectivity panel; format: biochemical; settings: [ATP] = 1 mM
FAK = FAK (Homo sapiens, UniProt Q05397); assay: Kinase selectivity panel; format: biochemical; settings: [ATP] = 1 mM
PHKG2 = PHKG2 (Homo sapiens, UniProt P15735); assay: Kinase selectivity panel; format: biochemical; settings: [ATP] = 1 mM
RET = RET (Homo sapiens, UniProt P07949); assay: Kinase selectivity panel; format: biochemical; settings: [ATP] = 1 mM
ROCK1 = ROCK1 (Homo sapiens, UniProt Q13464); assay: Kinase selectivity panel; format: biochemical; settings: [ATP] = 1 mM
TIE2 = TIE2 (Homo sapiens, UniProt Q02763); assay: Kinase selectivity panel; format: biochemical; settings: [ATP] = 1 mM
ZAP70 = ZAP70 (Homo sapiens, UniProt P43403); assay: Kinase selectivity panel; format: biochemical; settings: [ATP] = 1 mM
KG-1 = assay: Cell proliferation assay ([3H]-thymidine); format: cell-based, human; settings: KG-1 (AML)
Experimental: (§1) The antiproliferative effects of INCB053914 on hematologic tumor cells were investigated using assays described in the Supporting Information (S2 File).
(§2) Cell proliferation assays. […] After 3 to 4 days, [^3H]-thymidine (1 μCi/well) (PerkinElmer) in PBS (10 μl) was added to the cell culture for an additional 12 hours. The incorporated radioactivity was separated by filtration with water through GF/B filters (Packard Bioscience, Meriden, Connecticut) and measured by liquid scintillation counting with a TopCount (Packard Bioscience).

MOLM-16 = assay: Cell proliferation assay ([3H]-thymidine); format: cell-based, human; settings: MOLM-16 (AML)
Experimental: as §1, §2

CCRF-CEM = assay: Cell proliferation assay ([3H]-thymidine); format: cell-based; settings: Homo sapiens; CCRF-CEM (T-ALL); read-out: Mean (± SD) GI50
Experimental: as §1, §2

Jeko-1 = assay: Cell proliferation assay ([3H]-thymidine); format: cell-based; settings: Jeko-1 (MCL)
Experimental: as §1, §2

Kasumi-1 = assay: Cell proliferation assay ([3H]-thymidine); format: cell-based; settings: Kasumi-1 (AML)
Experimental: as §1, §2

MOLM-13 = assay: Cell proliferation assay ([3H]-thymidine); format: cell-based; settings: Homo sapiens; MOLM-13 (AML); read-out: Mean (± SD) GI50
Experimental: as §1, §2

MOLP-2 = assay: Cell proliferation assay ([3H]-thymidine); format: cell-based; settings: MOLP-2 (MM)
Experimental: as §1, §2

MOLP-8 = assay: Cell proliferation assay ([3H]-thymidine); format: cell-based; settings: MOLP-8 (MM)
Experimental: as §1, §2

MV-411 = assay: Cell proliferation assay ([3H]-thymidine); format: cell-based; settings: MV-411 (AML)
Experimental: as §1, §2

Mino = assay: Cell proliferation assay ([3H]-thymidine); format: cell-based; settings: Homo sapiens; Mino (MCL); read-out: Mean (± SD) GI50
Experimental: as §1, §2

OCI-LY-19 = assay: Cell proliferation assay ([3H]-thymidine); format: cell-based; settings: OCI-LY-19 (DLBCL)
Experimental: as §1, §2

SUDHL-1 = assay: Cell proliferation assay ([3H]-thymidine); format: cell-based; settings: Homo sapiens, SU-DHL-1; SUDHL-1 (DLBCL); read-out: Mean (± SD) GI50
Experimental: as §1, §2

THP-1 = assay: Cell proliferation assay ([3H]-thymidine); format: cell-based; settings: THP-1 (AML)
Experimental: as §1, §2

U2932 = assay: Cell proliferation assay ([3H]-thymidine); format: cell-based; settings: U2932 (DLBCL)
Experimental: as §1, §2

[1] = system: pBAD, pSTAT3 and MYC in INA-6 (MM) tumors; assay: pBAD, pSTAT3 and MYC levels in INA-6 (MM) tumors; format: in vivo, mouse; settings: INA-6 (MM) tumors in mice
Experimental: The PI3Kδ inhibitor INCB050465 (10 mg/kg once a day orally) was evaluated in combination with INCB053914 (30 mg/kg once a day orally) in mice bearing Pfeiffer (DLBCL) xenografts, a model sensitive to PI3Kδ inhibition (eight mice/group). Cytarabine was administered via intraperitoneal injection at a standard dose of 20 mg/kg twice a week, in combination with oral INCB053914 at a submaximally efficacious dose of 20 mg/kg twice a day for 12 days in mice bearing human KG-1 AML xenografts, a cytarabine-sensitive model (eight mice/group). The oral JAK1-selective inhibitor itacitinib (60 mg/kg twice a day orally) was assessed in combination with INCB053914 (100 mg/kg twice a day orally) after 8 days of administration to SCID mice bearing INA-6 (MM) xenografts (eight mice/group), a model sensitive to JAK inhibition.

[2] = Homo sapiens, read-out: Mean (± SD) GI50

Sequence of CAMK2D (Q13557 whole entry): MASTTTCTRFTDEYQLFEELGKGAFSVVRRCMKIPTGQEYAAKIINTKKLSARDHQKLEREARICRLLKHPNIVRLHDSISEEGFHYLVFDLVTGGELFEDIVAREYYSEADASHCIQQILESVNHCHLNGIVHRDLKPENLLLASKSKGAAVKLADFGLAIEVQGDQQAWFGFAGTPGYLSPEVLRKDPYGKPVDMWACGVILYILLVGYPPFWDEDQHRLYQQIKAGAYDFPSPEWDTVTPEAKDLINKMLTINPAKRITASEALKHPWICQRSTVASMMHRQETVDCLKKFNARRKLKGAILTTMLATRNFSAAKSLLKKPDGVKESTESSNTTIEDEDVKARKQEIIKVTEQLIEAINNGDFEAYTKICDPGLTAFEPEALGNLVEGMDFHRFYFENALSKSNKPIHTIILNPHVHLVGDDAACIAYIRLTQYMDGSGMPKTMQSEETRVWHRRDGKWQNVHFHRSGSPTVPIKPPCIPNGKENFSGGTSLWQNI
Sequence of DYRK2 (Q92630 whole entry): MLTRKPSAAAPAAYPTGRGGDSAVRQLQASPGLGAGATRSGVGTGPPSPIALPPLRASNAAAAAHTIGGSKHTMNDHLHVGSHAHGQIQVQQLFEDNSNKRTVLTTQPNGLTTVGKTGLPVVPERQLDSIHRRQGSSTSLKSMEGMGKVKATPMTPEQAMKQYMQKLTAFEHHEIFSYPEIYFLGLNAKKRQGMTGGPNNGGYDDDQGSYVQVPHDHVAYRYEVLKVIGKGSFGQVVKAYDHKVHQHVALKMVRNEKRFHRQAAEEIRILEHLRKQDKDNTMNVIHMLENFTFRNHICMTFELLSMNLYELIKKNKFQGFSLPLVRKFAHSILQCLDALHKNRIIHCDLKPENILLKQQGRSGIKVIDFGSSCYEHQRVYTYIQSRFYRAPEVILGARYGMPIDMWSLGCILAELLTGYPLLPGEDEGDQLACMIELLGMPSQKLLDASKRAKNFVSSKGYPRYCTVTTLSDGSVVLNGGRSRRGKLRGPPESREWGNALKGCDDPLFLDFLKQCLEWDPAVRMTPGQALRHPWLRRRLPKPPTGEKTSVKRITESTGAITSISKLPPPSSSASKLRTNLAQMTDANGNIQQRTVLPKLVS
Sequence of AXL (P30530 26-894): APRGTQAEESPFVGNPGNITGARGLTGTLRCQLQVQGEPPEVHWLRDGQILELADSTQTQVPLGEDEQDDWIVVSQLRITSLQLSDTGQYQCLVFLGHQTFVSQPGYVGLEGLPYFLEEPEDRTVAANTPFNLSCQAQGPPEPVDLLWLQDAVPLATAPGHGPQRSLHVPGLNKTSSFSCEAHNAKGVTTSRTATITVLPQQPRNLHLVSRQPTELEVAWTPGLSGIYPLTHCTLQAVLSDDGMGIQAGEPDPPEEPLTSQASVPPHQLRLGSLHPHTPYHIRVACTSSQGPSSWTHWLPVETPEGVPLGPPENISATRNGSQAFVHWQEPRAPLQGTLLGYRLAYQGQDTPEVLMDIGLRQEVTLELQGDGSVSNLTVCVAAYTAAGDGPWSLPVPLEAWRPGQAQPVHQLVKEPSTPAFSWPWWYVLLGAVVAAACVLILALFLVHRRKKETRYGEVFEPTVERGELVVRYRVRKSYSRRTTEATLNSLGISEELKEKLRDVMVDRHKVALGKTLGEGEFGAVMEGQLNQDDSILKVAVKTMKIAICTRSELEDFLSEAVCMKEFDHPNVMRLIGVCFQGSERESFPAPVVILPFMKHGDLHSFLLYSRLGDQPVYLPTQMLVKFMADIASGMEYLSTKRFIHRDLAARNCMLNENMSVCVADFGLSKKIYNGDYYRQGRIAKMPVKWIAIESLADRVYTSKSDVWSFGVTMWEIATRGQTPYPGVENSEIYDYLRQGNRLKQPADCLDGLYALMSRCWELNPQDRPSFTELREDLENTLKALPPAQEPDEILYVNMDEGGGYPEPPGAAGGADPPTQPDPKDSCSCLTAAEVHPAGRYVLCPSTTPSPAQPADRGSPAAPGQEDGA
Sequence of TIE2 (Q02763 23-1124, species assumed): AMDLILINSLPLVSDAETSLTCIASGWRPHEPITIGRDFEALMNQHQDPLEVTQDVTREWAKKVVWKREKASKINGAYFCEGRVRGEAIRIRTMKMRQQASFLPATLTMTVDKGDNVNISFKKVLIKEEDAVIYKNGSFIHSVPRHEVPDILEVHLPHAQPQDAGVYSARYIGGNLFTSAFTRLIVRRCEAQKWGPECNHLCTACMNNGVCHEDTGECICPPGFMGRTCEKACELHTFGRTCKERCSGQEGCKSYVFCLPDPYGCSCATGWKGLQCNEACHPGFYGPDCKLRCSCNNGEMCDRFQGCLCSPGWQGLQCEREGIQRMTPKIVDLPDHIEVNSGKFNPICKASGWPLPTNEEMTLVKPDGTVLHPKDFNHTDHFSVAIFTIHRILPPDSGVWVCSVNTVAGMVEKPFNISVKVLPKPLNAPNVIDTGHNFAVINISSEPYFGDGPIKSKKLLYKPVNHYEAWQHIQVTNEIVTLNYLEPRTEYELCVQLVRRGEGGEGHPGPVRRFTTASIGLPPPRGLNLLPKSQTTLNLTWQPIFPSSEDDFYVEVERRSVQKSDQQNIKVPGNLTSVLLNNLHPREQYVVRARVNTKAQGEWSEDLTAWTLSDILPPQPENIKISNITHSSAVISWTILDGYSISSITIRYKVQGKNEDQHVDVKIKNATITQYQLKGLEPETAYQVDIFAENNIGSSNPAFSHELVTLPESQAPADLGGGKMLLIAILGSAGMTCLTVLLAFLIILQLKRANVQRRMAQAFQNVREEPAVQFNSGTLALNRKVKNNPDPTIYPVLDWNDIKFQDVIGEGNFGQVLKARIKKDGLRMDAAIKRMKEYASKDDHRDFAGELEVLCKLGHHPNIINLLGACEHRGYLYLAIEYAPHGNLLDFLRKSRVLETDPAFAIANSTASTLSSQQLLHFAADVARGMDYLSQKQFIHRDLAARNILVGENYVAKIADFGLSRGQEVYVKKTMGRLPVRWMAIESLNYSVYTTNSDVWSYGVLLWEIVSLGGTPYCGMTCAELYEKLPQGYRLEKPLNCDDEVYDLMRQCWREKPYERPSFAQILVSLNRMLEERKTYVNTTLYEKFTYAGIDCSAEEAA
Sequence of FAK (Q05397 whole entry): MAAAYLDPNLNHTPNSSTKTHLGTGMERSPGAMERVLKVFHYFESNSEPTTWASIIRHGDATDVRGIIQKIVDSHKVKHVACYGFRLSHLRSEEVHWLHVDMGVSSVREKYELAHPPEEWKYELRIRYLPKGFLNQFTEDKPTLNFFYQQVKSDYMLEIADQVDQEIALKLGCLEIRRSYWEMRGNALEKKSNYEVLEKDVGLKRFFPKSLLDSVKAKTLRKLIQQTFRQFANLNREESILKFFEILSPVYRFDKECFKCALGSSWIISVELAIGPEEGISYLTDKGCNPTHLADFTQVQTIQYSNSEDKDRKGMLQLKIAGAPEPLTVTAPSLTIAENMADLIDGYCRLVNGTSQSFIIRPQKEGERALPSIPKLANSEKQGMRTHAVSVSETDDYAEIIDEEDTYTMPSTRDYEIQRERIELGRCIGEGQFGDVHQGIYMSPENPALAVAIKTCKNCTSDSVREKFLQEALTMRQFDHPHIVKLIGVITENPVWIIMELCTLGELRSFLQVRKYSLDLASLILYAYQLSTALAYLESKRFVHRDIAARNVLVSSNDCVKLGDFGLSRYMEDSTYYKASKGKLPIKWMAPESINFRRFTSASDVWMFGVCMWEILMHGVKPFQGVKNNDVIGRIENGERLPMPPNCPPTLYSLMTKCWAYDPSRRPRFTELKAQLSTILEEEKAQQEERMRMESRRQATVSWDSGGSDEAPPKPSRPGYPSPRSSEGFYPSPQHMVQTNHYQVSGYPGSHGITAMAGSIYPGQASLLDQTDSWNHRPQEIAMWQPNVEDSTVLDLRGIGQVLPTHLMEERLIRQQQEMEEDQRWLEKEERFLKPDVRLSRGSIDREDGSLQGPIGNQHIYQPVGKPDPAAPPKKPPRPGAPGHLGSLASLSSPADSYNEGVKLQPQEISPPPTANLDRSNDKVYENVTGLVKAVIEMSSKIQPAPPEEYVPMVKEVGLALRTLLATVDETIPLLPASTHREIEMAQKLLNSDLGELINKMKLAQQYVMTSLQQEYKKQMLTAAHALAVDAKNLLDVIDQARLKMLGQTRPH
Sequence of PHKG2 (P15735 whole entry): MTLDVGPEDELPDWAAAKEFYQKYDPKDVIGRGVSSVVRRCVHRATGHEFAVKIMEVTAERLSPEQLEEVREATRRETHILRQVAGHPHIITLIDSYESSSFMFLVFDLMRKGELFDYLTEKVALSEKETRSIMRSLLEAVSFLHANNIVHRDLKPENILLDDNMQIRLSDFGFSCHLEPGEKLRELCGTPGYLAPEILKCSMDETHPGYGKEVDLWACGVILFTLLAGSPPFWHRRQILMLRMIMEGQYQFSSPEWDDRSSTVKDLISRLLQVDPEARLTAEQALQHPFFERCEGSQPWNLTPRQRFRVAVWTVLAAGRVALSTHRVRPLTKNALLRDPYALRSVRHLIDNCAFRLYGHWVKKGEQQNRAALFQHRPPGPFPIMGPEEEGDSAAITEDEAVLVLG

## C[C@H]1CN(c2c(NC(=O)c3ccc(F)c(-c4c(F)cccc4F)n3)cnc3c2CC[C@H]3O)C[C@@H](N)[C@@H]1O.O=P(O)(O)O [INCB053914, N-((R)-4-((3R,4R,5S)-3-amino-4-hydroxy-5-methylpiperidin-1-yl)-7-hydroxy-6,7-dihydro-5H-cyclopenta[b]pyridin-3-yl)-6-(2,6-difluorophenyl)-5-fluoropicolinamide phosphate]
AXL
  IC50: > 20000 nM
CAMK2D
  IC50: > 20000 nM
DYRK2
  IC50: > 20000 nM
FAK
  IC50: > 20000 nM
PHKG2
  IC50: > 20000 nM
RET
  IC50: > 20000 nM
ROCK1
  IC50: > 20000 nM
TIE2
  IC50: > 20000 nM
ZAP70
  IC50: > 20000 nM
KG-1; [2]
  GI50: 17.9 ± 7.1 nM
KG-1
  Mean (SD) maximum inhibition: 88.3 ± 3.8%
MOLM-16; Homo sapiens, MOLM16, read-out: Mean (± SD) GI50
  GI50: 3.3 nM
MOLM-16
  Mean (SD) maximum inhibition: 99.3 ± 0.3%
CCRF-CEM
  GI50: > 3000 nM
Jeko-1; [2]
  GI50: 117 ± 45.5 nM
Jeko-1
  Mean (SD) maximum inhibition: 91.3 ± 2.9%
Kasumi-1; [2]
  GI50: 206 ± 76.3 nM
Kasumi-1
  Mean (SD) maximum inhibition: 76.7 ± 4.6%
MOLM-13
  GI50: > 3000 nM
MOLP-2
  Mean (SD) maximum inhibition: 95.4 ± 3.2%
MOLP-2; read-out: Mean (± SD) GI50
  GI50: 23.8 ± 10.1 nM
MOLP-8; [2]
  GI50: 13.2 ± 7.7 nM
MOLP-8
  Mean (SD) maximum inhibition: 93.3 ± 1.7%
MV-411; Homo sapiens, MV4-11, read-out: Mean (± SD) GI50
  GI50: 35.2 ± 41.7 nM
MV-411
  Mean (SD) maximum inhibition: 94.3 ± 3.9%
Mino
  GI50: > 3000 nM
OCI-LY-19; Homo sapiens, OCI-LY19, read-out: Mean (± SD) GI50
  GI50: 110 ± 53.6 nM
OCI-LY-19
  Mean (SD) maximum inhibition: 69.7 ± 5.1%
SUDHL-1
  GI50: > 3000 nM
THP-1; [2]
  GI50: 2050 nM
THP-1
  Mean (SD) maximum inhibition: 76.3 ± 22.3%
U2932; [2]
  GI50: 34.5 ± 10.1 nM
U2932
  Mean (SD) maximum inhibition: 83.6 ± 8.0%
[1]
  MYC levels: decreased MYC levels
  level of pBAD: decrease
